US20110098219A1, “System for Curing Hepatic Cancer with Leptin” (KAOHSIUNG MEDICAL UNIVERSITY, priority 2009, published 2011)

System: epithelial cell line of normal liver (THLE-3)
Test: XTT assay, survival of normal liver epithelial cell line
Assay type: cell-based
Conditions: THLE-3, FIG. 17A
Protocol: Please refer to FIG. 17A to FIG. 18B, which are views showing epithelial cell line of normal liver treated with MPA+leptin for 24 hours and 48 hours respectively; and views showing STAT3- and MAPK-related signal paths after treating cell line of normal liver with MPA+leptin. As shown in the figures, after epithelial cell line of normal liver (THLE-3) is applied with MPA+leptin for […], MPA+leptin's effect on cell growth (i.e. survival rate) is analyzed through XTT assay. […] Besides, in FIG. 18A and FIG. 18B, protein expressions for STAT- and MAPK-related signal paths are analyzed.

SMILES: CC(=O)O[C@]1(C(C)=O)CC[C@H]2[C@@H]3C[C@H](C)C4=CC(=O)CC[C@]4(C)[C@H]3CC[C@@]21C [MPA, medroxyprogesterone acetate]
- effect on survival rate of, and poisoning of, normal liver epithelial cells: no obvious effect
